Measurements reported in patent US9233979B2, “Compounds that are ERK inhibitors” (Merck Sharp & Dohme Corp., priority 2012, dated 2016).
Read-outs that look alike come from different tables or passages of the source.

Target: phosphorylated active hERK2 enzyme (Homo sapiens (Human), UniProt P28482)
Assay: Active Human ERK2 (hERK2) Activity Assay (IMAP-FP)
Format: biochemical
Conditions: 10 point titration, read-out: AERK2 IC50
Summary of the method: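 IMAP fluorescence-polarization kinase assay: 0.5 nM activated hERK2 with 900 nM unlabeled plus 80 nM labeled peptide and 30 μM ATP, reacted 60 min. Quenched with IMAP beads in binding buffer with 24 mM NaCl; FP read after 60 min equilibration.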

[1] = Table 6, 0.5 nM hERK2, 30 μM ATP
[2] = Table 5, 0.5 nM hERK2, 30 μM ATP

phosphorylated active hERK2 enzyme, sequence (P28482 whole entry): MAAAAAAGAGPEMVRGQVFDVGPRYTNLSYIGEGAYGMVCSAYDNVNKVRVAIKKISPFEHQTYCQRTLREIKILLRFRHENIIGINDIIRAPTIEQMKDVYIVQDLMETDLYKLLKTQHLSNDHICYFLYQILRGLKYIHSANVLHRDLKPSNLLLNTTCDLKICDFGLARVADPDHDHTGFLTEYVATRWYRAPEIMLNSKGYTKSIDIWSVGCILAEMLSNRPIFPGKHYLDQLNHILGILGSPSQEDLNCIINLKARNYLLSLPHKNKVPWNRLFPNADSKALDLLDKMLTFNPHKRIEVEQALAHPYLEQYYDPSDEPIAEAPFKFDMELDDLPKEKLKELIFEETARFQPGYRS

IC50 [1] [nM] | IC50 [2] [nM] | SMILES
2.4 | – | CC(C)(O)[C@@H](NC(=O)Nc1cc2[nH]nc(NC(=O)N3CCOCC3)c2cn1)c1ccc(F)cc1 [Example 133, N-[6-({[(1S)-1-(4-fluorophenyl)-2-hydroxy-2-methylpropyl]-carbamoyl}amino)-1H-pyrazolo[4,3-c]pyridin-3-yl]-morpholine-4-carboxamide]
0.4 | – | CC(C)(O)[C@@H](NC(=O)Nc1cc2[nH]nc(N3CCc4ncsc4C3)c2cn1)c1ccc(F)cc1 [Example 125, 1-[3-(6,7-dihydro[1,3]thiazolo-[5,4-c]pyridin-5(4H)-yl)-1H-pyrazolo[4,3-c]pyridin-6-yl]-3-[(1S)-1-(4-fluorophenyl)-2-hydroxy-2-methylpropyl]urea]
– | 2.81 | C[C@@H](NC(=O)Nc1cc2[nH]nc(N)c2cn1)c1ccc(F)cc1 [Example 44, 1-(3-amino-1H-pyrazolo[4,3-c]pyridin-6-yl)-3-[(1R)-1-(4-fluorophenyl)ethyl]urea]
5.9 | – | C[C@@H]1Cc2nc(NC(=O)N[C@H](C)c3ccccc3)cc3[nH]nc(c23)N1 [Example 138, 1-((R)-4-methyl-1,3,4,5-tetrahydropyrazolo[3,4,5-de][1,6]naphthyridin-7-yl)-3-((R)-1-phenylethyl)urea]
1.4 | – | CC[C@@H](NC(=O)Nc1cc2[nH]nc(NC(=O)OC)c2cn1)c1ccc(Cl)cc1 [Example 301, methyl [6-({[(1R)-1-(4-chlorophenyl)-propyl]carbamoyl}amino)-1H-pyrazolo[4,3-c]-pyridin-3-yl]-carbamate]
4.4 | – | C[C@@H](NC(=O)Nc1cc2[nH]nc(NC3CCCOC3)c2cn1)c1ccccc1 (stereo partly drawn) [Example 174, 1-[(1R)-1-phenylethyl]-3-[3-(tetrahydro-2H-pyran-3-ylamino)-1H-pyrazolo[4,3-c]pyridin-6-yl]urea]
7.8 | – | CNc1n[nH]c2cc(NC(=O)N[C@H](C)c3ccc(Cl)cc3)ncc12 [Example 343, 1-[(1R)-1-(4-chlorophenyl)ethyl]-3-[3-(methyl-amino)-1H-pyrazolo[4,3-c]-pyridin-6-yl]urea]
11.8 | – | CNc1n[nH]c2cc(NC(=O)N[C@H](C)c3ccccc3)nc(C)c12 [Example 336, 1-[4-methyl-3-(methylamino)-1H-pyrazolo[4,3-c]pyridin-6-yl]-3-[(1R)-1-phenylethyl]urea]
435 | – | Nc1n[nH]c2cc(NC(=O)N[C@H](c3ccccc3)[C@H]3CCCO3)ncc12 [Example 154, 1-(3-amino-1H-pyrazolo[4,3-c]pyridin-6-yl)-3-{(R)-phenyl[(2R)-tetrahydrofuran-2-yl]methyl}urea]
2280 | – | COC[C@@H](NC(=O)Nc1cc2[nH]nc(Nc3ccccc3C#N)c2cn1)c1ccccc1 [Example 383, 1-{3-[(2-cyanophenyl)amino]-1H-pyrazolo[4,3-c]pyridin-6-yl}-3-[(1S)-2-methoxy-1-phenylethyl]urea]
2.7 | – | C[C@@H](NC(=O)Nc1cc2[nH]nc(N3CC(CO)C3)c2cn1)c1ccccc1 [Example 83, 1-{3-[3-(hydroxyl-methyl)azetidin-1-yl]-1H-pyrazolo[4,3-c]-pyridin-6-yl}-3-[(1R)-1-phenylethyl]-urea]
4.1 | – | CC(Nc1n[nH]c2cc(NC(=O)N[C@H](C)c3ccccc3)ncc12)C1CCOCC1 (stereo partly drawn) [Example 171, 1-[(1R)-1-phenylethyl]-3-(3-{[1-(tetrahydro-2H-pyran-4-yl)-ethyl]amino}-1H-pyrazolo[4,3-c]-pyridin-6-yl)urea]
355 | – | C[C@@H](NC(=O)Nc1cc2[nH]nc(NC(=O)OCC(C)(C)C)c2cn1)c1ccccc1 [Example 224, 2,2-dimethylpropyl [6-({[(1R)-1-phenylethyl]-carbamoyl}amino)-1H-pyrazolo[4,3-c]pyridin-3-yl]-carbamate]
0.9 | – | COC[C@@H](NC(=O)Nc1cc2[nH]nc(NCC(F)(F)F)c2cn1)c1ccccc1 [Example 342, 1-[(1S)-2-methoxy-1-phenylethyl]-3-{3-[(2,2,2-trifluoro-ethyl)amino]-1H-pyrazolo[4,3-c]-pyridin-6-yl}urea]
12.2 | – | C[C@@H](NC(=O)Nc1cc2[nH]nc3c2c(n1)CCN3)c1ccccc1 [Example 136, (R)-1-(1-phenylethyl)-3-(1,3,4,5-tetrahydropyrazolo[3,4,5-de][1,6]naphthyridin-7-yl)urea]
3.4 | – | COC(=O)Nc1n[nH]c2cc(NC(=O)N[C@H](C)c3ccc(Cl)c(C)c3)ncc12 [Example 304, methyl [6-({[(1R)-1-(4-chloro-3-methyl-phenyl)ethyl}-carbamoyl}amino)-1H-pyrazolo[4,3-c]pyridin-3-yl]-carbamate]
38.2 | – | CC(CC1CCCCN1)Nc1n[nH]c2cc(NC(=O)N[C@H](C)c3ccccc3)ncc12 (stereo partly drawn) [Example 176, 1-{3-[(1-methyl-2-piperidin-2-ylethyl)amino]-1H-pyrazolo[4,3-c]pyridin-6-yl}-3-[(1R)-1-phenylethyl]urea]

Second part, the molecule before the results:

SMILES | IC50 [1] [nM] | IC50 [2] [nM]
CCNc1n[nH]c2cc(NC(=O)N[C@@H](c3ccccc3)C3(O)CCCC3)ncc12 [Example 236, 1-[3-(ethylamino)-1H-pyrazolo[4,3-c]pyridin-6-yl]-3-[(S)-(1-hydroxy-cyclopentyl)-(phenyl)methyl]-urea] | 0.7 | –
COC[C@@H](NC(=O)Nc1cc2[nH]nc(NC(C)C(F)(F)F)c2cn1)c1ccccc1 (stereo partly drawn) [Example 417, 1-[(1S)-2-methoxy-1-phenylethyl]-3-{3-[(2,2,2-trifluoro-1-methylethyl)-amino]-1H-pyrazolo[4,3-c]-pyridin-6-yl}urea] | 0.6 | –
C[C@@H](NC(=O)Nc1cc2[nH]nc(N3CCc4nn(C)cc4C3)c2cn1)c1ccc(F)cc1 [Example 391, 1-[(1R)-1-(4-fluorophenyl)ethyl]-3-(2′-methyl-2′,4′,6′,7′-tetrahydro-1H-3,5′-bipyrazolo[4,3-c]-pyridin-6-yl)urea] | 0.4 | –
Cc1nc(NC(=O)N[C@H](C)c2ccccc2)cc2[nH]nc(N)c12 [Example 333, (R)-1-(3-amino-4-methyl-1H-pyrazolo[4,3-c]pyridin-6-yl)-3-(1-phenylethyl)urea] | 0.7 | –
COC[C@@H](NC(=O)Nc1cc2[nH]nc(NC3CCOCC3)c2cn1)c1ccccc1 [Example 328, 1-[(1S)-2-methoxy-1-phenylethyl]-3-[3-(tetrahydro-2H-pyran-4-ylamino)-1H-pyrazolo[4,3-c]pyridin-6-yl]urea] | 0.8 | –
C[C@@H](NC(=O)Nc1cc2[nH]nc(N3CC4CC3CO4)c2cn1)c1ccccc1 (stereo partly drawn) [Example 449, 1-[3-(2-oxa-5-azabicyclo[2.2.1]-hept-5-yl)-1H-pyrazolo[4,3-c]-pyridin-6-yl]-3-[(1R)-1-phenylethyl]urea] | 6 | –
COCCN(C)c1n[nH]c2cc(NC(=O)N[C@H](C)c3ccccc3)ncc12 [Example 10, 1-{3-[(2-methoxyethyl)(methyl)amino]-1H-pyrazolo[4,3-c]pyridin-6-yl}-3-[(1R)-1-phenylethyl]urea] | – | 42.1
CCNc1n[nH]c2cc(NC(=O)NCc3c(F)cccc3Cl)ncc12 [Example 244, 1-(2-chloro-6-fluorobenzyl)-3-[3-(ethylamino)-1H-pyrazolo[4,3-c]-pyridin-6-yl]urea] | 10.8 | –
COC(=O)Nc1n[nH]c2cc(NC(=O)N[C@H](COC(F)F)c3ccccc3)ncc12 [Example 288, methyl [6-({[(1S)-2-(difluoro-methoxy)-1-phenylethyl]-carbamoyl}amino)-1H-pyrazolo[4,3-c]pyridin-3-yl}-carbamate] | 0.6 | –
COC(=O)Nc1n[nH]c2cc(NC(=O)N[C@H](C)c3ccc(Cl)c(Cl)c3)ncc12 [Example 302, methyl [6-({[(1R)-1-(3,4-dichloro-phenyl)ethyl]-carbamoyl}amino)-1H-pyrazolo[4,3-c]pyridin-3-yl]-carbamate] | 0.7 | –
CCNc1n[nH]c2cc(NC(=O)N[C@H](COC(F)F)c3ccccc3)ncc12 [Example 353, 1-[(1S)-2-(difluoromethoxy)-1-phenylethyl]-3-[3-(ethylamino)-1H-pyrazolo[4,3-c]pyridin-6-yl]urea] | 0.6 | –
CCN(C(C)=O)c1n[nH]c2cc(NC(=O)N[C@H](C)c3ccccc3)ncc12 [Example 350, N-ethyl-N-[6-({[(1R)-1-phenyl-ethyl]carbamoyl}-amino)-1H-pyrazolo[4,3-c]-pyridin-3-yl]-acetamide] | 33.3 | –
C[C@H]1Cc2nc(NC(=O)N[C@H](C)c3ccccc3)cc3[nH]nc(c23)N1 [Example 139, 1-((S)-4-methyl-1,3,4,5-tetrahydropyrazolo[3,4,5-de][1,6]naphthyridin-7-yl)-3-((R)-1-phenylethyl)urea] | 5.5 | –
COC(=O)Nc1n[nH]c2cc(NC(=O)N[C@H]3c4ccccc4OCC[C@H]3O)ncc12 [Example 394, methyl [6-({[(4R,5S)-4-hydroxy-2,3,4,5-tetrahydro-1-benzoxepin-5-yl]-carbamoyl}amino)-1H-pyrazolo[4,3-c]pyridin-3-yl]-carbamate] | 0.3 | –
C[C@H](O)[C@@H](NC(=O)Nc1cc2[nH]nc(N3CCOCC3)c2cn1)c1ccc(F)cc1 [Example 98, 1-[(1S,2S)-1-(4-fluorophenyl)-2-hydroxypropyl]-3-(3-morpholin-4-yl-1H-pyrazolo[4,3-c]-pyridin-6-yl)urea] | 0.2 | –
C[C@@H](NC(=O)Nc1cc2[nH]nc(NC(=O)CN(C)C)c2cn1)c1ccccc1 [Example 208] | 27.8 | –
C[C@@H](NC(=O)Nc1cc2[nH]nc(NC(=O)c3ccccn3)c2cn1)c1ccccc1 [Example 212, N-[6-({[(1R)-1-phenylethyl]-carbamoyl}amino)-1H-pyrazolo[4,3-c]pyridin-3-yl]-pyridine-2-carboxamide] | 11.7 | –
COC1CCN(c2n[nH]c3cc(NC(=O)N[C@H](COC(F)F)c4ccccc4)ncc23)CC1 [Example 426, 1-[(1S)-2-(difluoromethoxy)-1-phenylethyl]-3-[3-(4-methoxy-piperidin-1-yl)-1H-pyrazolo[4,3-c]-pyridin-6-yl]urea] | 1 | –
